# According to patent publication US20250129028A1, “COMPOUNDS AND METHODS FOR YAP/TEAD MODULATION AND INDICATIONS THEREFOR” (Opna Bio SA, priority 2022, published 2025):
# System: TEAD-dependent transcription
# Assay: TEAD-dependent transcription cell-based reporter assay (MSTO-211H+12XGTIIC luciferase)
# Parameters: species or system human
# Settings: Homo sapiens; MSTO-211H+12XGTIIC cell line, luciferase signal normalized to cell viability, 24 hours compound incubation; read-out: MSTO-211H GMean IC50 (uM) Cell Assay Reporter Cell Variant: TEAD
# How it was run: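 MSTO-211H mesothelioma cells stably carrying a 12xGTIIC TEAD-response-element luciferase reporter, treated with serial compound dilutions for 24 h at 37 °C. Luminescence normalized to CellTiter-Fluor viability signal; % inhibition versus DMSO and 20 μM K-975 controls, IC50 by nonlinear regression.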
row,Structure (SMILES),IC50 [µM]
1,"Nc1nccc(C(=O)N2CCc3ccc(Oc4ccc(C(F)(F)F)cc4)cc3C2)n1 [P-0092, (2-aminopyrimidin-4-yl)-(7-(4-(trifluoromethyl)-phenoxy)-3,4-dihydroiso-quinolin-2(1H)-yl)meth-anone]",0.001 to 10
2,"NS(=O)(=O)c1ccc(C(=O)N2CCc3ccc(Oc4ccc(C(F)(F)F)cc4)cc3C2)cc1 [P-0126, 4-(7-(4-(trifluorometh-yl)phenoxy)-1,2,3,4-tetrahydroisoquinoline-2-carbonyl)benzene-sulfonamide]",0.001 to 10
3,"CS(=O)(=O)CC(=O)N1CCc2ccc(Oc3ccc(C(F)(F)F)cc3)cc2C1 [P-0078, 2-(methylsulfonyl)-1-(7-(4-(trifluoromethyl)phen-oxy)-3,4-dihydroisoquin-olin-2(1H)-yl)ethan-1-one]",0.001 to 10
4,"NC(=O)NCC(=O)N1CCc2c(cccc2-c2ccc(C(F)(F)F)cc2)C1 [P-0272, 1-(2-oxo-2-(5-(4-(trifluoromethyl)phen-yl)-3,4-dihydroisoquin-olin-2(1H)-yl)ethyl)urea]",0.001 to 10
5,"O=C(Cc1cnc[nH]1)N1CCc2c(cccc2Oc2ccc(C(F)(F)F)cc2)C1 [P-0242, 2-(1H-imidazol-5-yl)-1-(5-(4-(trifluoromethyl)-phenoxy)-3,4-dihydroiso-quinolin-2(1H)-yl)ethan-1-one]",0.001 to 10
6,"CNCCC(=O)N1CCc2ccc(Oc3ccc(C(F)(F)F)cc3)cc2C1 [P-0068, 3-(methylamino)-1-(7-(4-(trifluoromethyl)phen-oxy)-3,4-dihydroisoquin-olin-2(1H)-yl)propan-1-one]",0.001 to 10
7,"NC(=O)CCN1CCc2ccc(Oc3ccc(C(F)(F)F)cc3)cc2C1 [P-0029, 3-(7-(4-(trifluorometh-yl)phenoxy)-3,4-dihydro-isoquinolin-2(1H)-yl)-propanamide]",10 to 100
8,"O=C(O)CCC(=O)N1CCc2ccc(Oc3ccc(C(F)(F)F)cc3)cc2C1 [P-0057, 4-oxo-4-(7-(4-(trifluoro-methyl)phenoxy)-3,4-dihydroisoquinolin-2(1H)-yl)butanoic acid]",0.001 to 10
9,"CN(C(=O)N1CCc2ccc(Oc3ccc(C(F)(F)F)cc3)cc2C1)C1CCS(=O)(=O)C1 (stereo not drawn) [P-0065, N-(1,1-dioxidotetra-hydrothiophen-3-yl)-N-methyl-7-(4-(trifluoro-methyl)phenoxy)-3,4-dihydroisoquinoline-2(1H)-carboxamide]",0.001 to 10
10,"Nc1nc(C(=O)N2CCc3c(cccc3Oc3ccc(C(F)(F)F)cc3)C2)cs1 [P-0240, (2-aminothiazol-4-yl)(5-(4-(trifluoromethyl)phen-oxy)-3,4-dihydroisoquin-olin-2(1H)-yl)methanone]",0.001 to 10
11,"O=C(CC1COC1)N1CCc2ccc(Oc3ccc(C(F)(F)F)cc3)cc2C1 [P-0069, 2-(oxetan-3-yl)-1-(7-(4-(trifluoromethyl)phen-oxy)-3,4-dihydroisoquin-olin-2(1H)-yl)ethan-1-one]",0.001 to 10
12,"CS(=O)(=O)CCC(=O)N1CCc2ccc(Oc3ccc(C(F)(F)F)cc3)cc2C1CC1CN(C(=O)CO)C1 (stereo not drawn) [P-0202, 1-(1-((1-(2-hydroxyacet-yl)azetidin-3-yl)methyl)-7-(4-(trifluoromethyl)-phenoxy)-3,4-dihydro-isoquinolin-2(1H)-yl)-3-(methylsulfonyl)-propan-1-one]",0.001 to 10
13,"O=C(Cc1nnc[nH]1)N1CCc2c(cccc2Oc2ccc(C(F)(F)F)cc2)C1 [P-0251, 2-(4H-1,2,4-triazol-3-yl)-1-(5-(4-(trifluoromethyl)-phenoxy)-3,4-dihydroiso-quinolin-2(1H)-yl)ethan-1-one]",0.001 to 10
14,"CS(=O)(=O)CCC(=O)N1CCc2ccc(Oc3ccc(C(F)(F)F)cc3)cc2C1CC1CN(c2ccccn2)C1 (stereo not drawn) [P-0201, 3-(methylsulfonyl)-1-(1-((1-(pyridin-2-yl)azeti-din-3-yl)methyl)-7-(4-(trifluoromethyl)phen-oxy)-3,4-dihydroisoquin-olin-2(1H)-yl)propan-1-one]",0.001 to 10
15,"CCC(=O)N1CCc2ccc(Oc3ccc(C(F)(F)F)cc3)cc2C1 [P-0014, 1-(7-(4-(trifluorometh-yl)phenoxy)-3,4-dihydroisoquinolin-2(1H)-yl)propan-1-one]",0.001 to 10
16,"NS(=O)(=O)N1CCc2ccc(Oc3ccc(C(F)(F)F)cc3)cc2C1 [P-0001, 7-(4-(trifluoromethyl)-phenoxy)-3,4-dihydroiso-quinoline-2(1H)-sulfon-amide]",0.001 to 10
17,"CN1CCC(C(=O)N2CCc3ccc(Oc4ccc(C(F)(F)F)c(F)c4)cc3C2)C1 (stereo not drawn) [P-0105, (7-(3-fluoro-4-(trifluoro-methyl)phenoxy)-3,4-dihydroisoquinolin-2(1H)-yl)(1-methylpyr-rolidin-3-yl)methanone]",0.001 to 10
18,"CNS(=O)(=O)N1CCc2ccc(Oc3ccc(C(F)(F)F)cc3)cc2C1 [P-0012, N-methyl-7-(4-(trifluoro-methyl)phenoxy)-3,4-dihydroisoquinoline-2(1H)-sulfonamide]",0.001 to 10

row,Structure (SMILES),IC50 [µM]
1,"CN1C(=O)SC(CC(=O)N2CCc3ccc(Oc4ccc(C(F)(F)F)c(F)c4)cc3C2)C1=O (stereo not drawn) [P-0138, 5-(2-(7-(3-fluoro-4-(trifluoromethyl)phen-oxy)-3,4-dihydroisoquin-olin-2(1H)-yl)-2-oxoeth-yl)-3-methylthiazolidine-2,4-dione]",0.001 to 10
2,"NC(=O)CN1CCc2ccc(Oc3ccc(C(F)(F)F)cc3)cc2C1 [P-0026, 2-(7-(4-(trifluorometh-yl)phenoxy)-3,4-dihydro-isoquinolin-2(1H)-yl)-acetamide]",0.001 to 10
3,"O=C(Cc1cn[nH]c1O)N1CCc2c(cccc2Oc2ccc(C(F)(F)F)cc2)C1 [P-0252, 2-(5-hydroxy-1H-pyr-azol-4-yl)-1-(5-(4-(trifluoromethyl)phen-oxy)-3,4-dihydroisoquin-olin-2(1H)-yl)ethan-1-one]",0.001 to 10
4,"CS(=O)(=O)CCC(=O)N1CCc2c(cccc2Oc2ccc(C(F)(F)F)cc2)C1 [P-0269, 3-(methylsulfonyl)-1-(5-(4-(trifluoromethyl)phen-oxy)-3,4-dihydroisoquin-olin-2(1H)-yl)propan-1-one]",0.001 to 10
5,"CS(=N)(=O)CCC(=O)N1CCc2ccc(Oc3ccc(C(F)(F)F)cc3)cc2C1 (stereo not drawn) [P-0055, imino(methyl)(3-oxo-3-(7-(4-(trifluoromethyl)-phenoxy)-3,4-dihydroiso-quinolin-2(1H)-yl)prop-yl)-16-sulfanone]",0.001 to 10
6,"O=C(CNS(=O)(=O)C(F)(F)F)N1CCc2ccc(Oc3ccc(C(F)(F)F)c(F)c3)cc2C1 [P-0114, 1,1,1-trifluoro-N-(2-(7-(3-fluoro-4-(trifluoromethyl)phenoxy)-3,4-dihydroisoquinolin-2(1H)-yl)-2-oxoethyl)methanesulfonamide]",0.001 to 10
7,"O=C(CCc1cnc[nH]1)N1CCc2c(cccc2Oc2ccc(C(F)(F)F)cc2)C1 [P-0243, 3-(1H-imidazol-5-yl)-1-(5-(4-(trifluoromethyl)-phenoxy)-3,4-dihydroiso-quinolin-2(1H)-yl)pro-pan-1-one]",0.001 to 10
8,"O=C(CCc1ncc[nH]1)N1CCc2c(cccc2Oc2ccc(C(F)(F)F)cc2)C1 [P-0249, 3-(1H-imidazol-2-yl)-1-(5-(4-(trifluoromethyl)-phenoxy)-3,4-dihydro-isoquinolin-2(1H)-yl)pro-pan-1-one]",0.001 to 10
9,"CNC(=O)N1CCc2ccc(Oc3ccc(C(F)(F)F)cc3)cc2C1 [P-0016, N-methyl-7-(4-(trifluoro-methyl)phenoxy)-3,4-dihydroisoquinoline-2(1H)-carboxamide]",0.001 to 10
10,"O=C(CCS(=O)(=O)C(F)(F)F)N1CCc2ccc(Oc3ccc(Cl)cc3)cc2C1 [P-0091, 1-(7-(4-chlorophenoxy)-3,4-dihydroisoquinolin-2(1H)-yl)-3-((trifluoro-methyl)sulfonyl)propan-1-one]",0.001 to 10
11,"O=C(Cc1cc[nH]n1)N1CCc2ccc(Oc3ccc(C(F)(F)F)cc3)cc2C1 [P-0133, 2-(1H-pyrazol-3-yl)-1-(7-(4-(trifluoromethyl)-phenoxy)-3,4-dihydroiso-quinolin-2(1H)-yl)ethan-1-one]",0.001 to 10
12,"O=C1CCC(CC(=O)N2CCc3ccc(Oc4ccc(C(F)(F)F)cc4)cc3C2)CN1 (stereo not drawn) [P-0132, 5-(2-oxo-2-(7-(4-(trifluoromethyl)phen-oxy)-3,4-dihydroisoquin-olin-2(1H)-yl)ethyl)piper-idin-2-one]",0.001 to 10
13,"NC(=O)NCCC(=O)N1CCc2ccc(Oc3ccc(C(F)(F)F)cc3)cc2C1 [P-0096, 1-(3-oxo-3-(7-(4-(trifluoromethyl)phen-oxy)-3,4-dihydroisoquin-olin-2(1H)-yl)propyl)urea]",0.001 to 10
14,"CC(C)C(=O)N1CCc2c(cccc2Oc2ccc(C(F)(F)F)cc2)C1 [P-0234, 2-methyl-1-(5-(4-(trifluoromethyl)phen-oxy)-3,4-dihydroisoquin-olin-2(1H)-yl)propan-1-one]",0.001 to 10
15,"O=C(Cc1cnccc1O)N1CCc2ccc(Oc3ccc(C(F)(F)F)cc3)cc2C1 [P-0047, 2-(4-hydroxypyridin-3-yl)-1-(7-(4-(trifluoro-methyl)phenoxy)-3,4-dihydroisoquinolin-2(1H)-yl)ethan-1-one]",0.001 to 10
16,"O=C(CCS(=O)(=O)C(F)(F)F)N1CCc2c(cccc2Oc2ccc(C(F)(F)F)cc2)C1 [P-0254, 1-(5-(4-(trifluorometh-yl)phenoxy)-3,4-dihydro-isoquinolin-2(1H)-yl)-3-((trifluoromethyl)sul-fonyl)propan-1-one]",0.001 to 10
17,"CNC(=O)c1cccc(N2CCc3ccc(Oc4ccc(C(F)(F)F)cc4)cc3C2)n1 [P-0229, N-methyl-6-(7-(4-(trifluoromethyl)phen-oxy)-3,4-dihydroisoquin-olin-2(1H)-yl)picolin-amide]",0.001 to 10
18,"C[S+]([O-])CCC(=O)N1CCc2ccc(Oc3ccc(C(F)(F)F)cc3)cc2C1 (stereo not drawn) [P-0056, 3-(methylsulfinyl)-1-(7-(4-(trifluoromethyl)phen-oxy)-3,4-dihydroisoquin-olin-2(1H)-yl)propan-1-one]",0.001 to 10
